These results are taken from a melting point compilation (Tetko et al.; mined from patent text by program, amines drawn as free bases though some values may be those of a salt).

By melting point is commonly meant the temperature, or range, at which the solid turns liquid.

In the case of `O=C(Nc1ccc(N2CCN(C(=O)C(F)(F)F)CC2)cc1)C(F)(F)F`, the melting point is 193 to 194 °C.

As to `CCOCc1cc(OC)c(-c2ccc(C[C@H](NC(=O)c3c(F)cccc3Cl)C(=O)O)cc2)c(OC)c1`, the melting point was 182 to 184 °C.

In turn, `OC[C@H](O)CNc1ccc2cc(OCC3CC3)ccc2c1` yielded a melting point of 138 °C.

The compound `COc1cc2c(=O)n(CCN3CCCCC3)c3c4cc5c(cc4nnc3c2cc1OC)OCO5` registered a melting point of 294 to 295 °C.

For `COC(=O)C1NC(C(=O)OC)C(C(=O)OC)NC1C(=O)OC` (centres undefined), the melting point lay within 162 to 163 °C.

Compound `O=C1c2ccccc2C(=O)N1C1CC=CCC1` (centres undefined) showed a melting point of 114 °C.

Compound `Cc1cc(C2CCN(S(=O)(=O)C3(C(=O)NO)CCN(C(=O)OC(C)(C)C)CC3)CC2)ccc1-c1cccc(OCCO)n1` came in with a melting point of 180 to 181 °C.

`Cc1noc(C)c1C(=O)Nc1ccc(-n2nccc2C)cc1` showed a melting point of 151 to 152 °C.

The compound `CC1=CCC2C(=O)N(c3ccccc3)C(=O)C2C1` (centres undefined) registered a melting point of 92 to 93 °C.

The compound `CCOn1c(SC)n[nH]c1=O` registered a melting point of 99 °C.

The compound `COc1ccc2cc3c(Cl)n[nH]c3nc2c1` gave a melting point of 296 to 297 °C.

Turning to `N#Cc1cc(C(=O)NNC(=O)c2occc2-c2cccc(Oc3ccccc3)c2)ccc1O`, the melting point was 227 to 228 °C.

With `COC(=O)c1cc2ccc(OCCN(C)C(=O)OC(C)(C)C)cc2oc1=O`, the melting point was in the range of 128 to 129 °C.

With `CCCCCCCCCCCCCCCC(=O)CC(=O)OC`, the melting point lay within 40 to 41 °C.

Regarding `c1ccc2c(c1)ncc1ncsc12`, the melting point was in the range of 114 to 116 °C.

As to `Nc1nc(F)c(C(F)(F)F)cc1Cl`, the melting point was in the range of 101 to 103 °C.

`CC(=O)OCC(=O)c1ccc(C)cc1C` came in with a melting point of 43 to 45 °C.

The compound `N#Cc1cccnc1N1CCN(CC(=O)Nc2cccc([N+](=O)[O-])c2)CC1` returned a melting point of 143 to 145 °C.

Regarding `COc1ccc(C2(CC(=O)O)CNC(=O)C2)cc1` (centres undefined), the melting point lay in the range of 172 to 175 °C.

In turn, `Nc1ccc(-c2nc(N3CCOCC3)c3sc(C(=O)NCC4CCN(c5ncc(C(=O)NO)cn5)CC4)cc3n2)cc1` came in with a melting point of 232 to 238 °C.

`CC(=O)C(Cl)=NNc1ccc([N+](=O)[O-])cc1` had a melting point of 180 to 183 °C.

The compound `CCn1cc(C(=O)O)c(=O)c2cc3cc(F)c(N4CCNC(c5cccc(F)c5)C4)cc3nc21` (racemic) displayed a melting point of 284 °C.

Compound `Cc1ccc(F)cc1NC(=O)CN1CCNC(CO)C1` (centres undefined) registered a melting point of 128 °C.

Regarding `CCOC(=O)C1C(=O)C=C(OC(C)OCC)CC1c1ccc(C)cc1` (centres undefined), the melting point lay within 59 to 60 °C.

`O=C(O)c1c(Cl)cc(Cl)c(Cl)c1C(=O)O` returned a melting point of 150 to 153 °C.

As to `Cn1c2c(c3cccc(F)c31)C(=O)CCC2`, the melting point is 126 to 128 °C.

`Cc1cccc2c(=O)[nH]c(CCCN3CCC[C@@H]3CO)cc12` returned a melting point of 150 to 151 °C.

As for `CC1COc2c(Br)c(F)cc3c(=O)c(C(=O)O)cn1c23` (centres undefined), the melting point is over 250 °C.

Turning to `O=C(O)CN1CCN2c3ccccc3Cn3cccc3C2C1` (centres undefined), the melting point is 249 to 250 °C.

`NC(=O)Cc1cc(Oc2ccc3c(ccn3C(=O)Nc3ccc(N4CCOCC4)c(C(F)(F)F)c3)c2)ncn1` came in with a melting point of 272 to 275 °C.

In the case of `c1ccc(CSc2nc3cnccc3[nH]2)cc1`, the melting point is 175 to 177 °C.

In turn, `COc1cc(N)c(Cl)cc1C(=O)NCC1CCN(CCCOc2ccccc2)CC1` showed a melting point of 132 to 134 °C.

In turn, `Cc1cccc(NC(=O)NC(C)C(=O)N(c2ccccc2)c2ccccc2)c1` (racemic) came in with a melting point of 82 °C.

With `Cc1ccc(-c2c3c(cc4ccc(O)cc24)-c2ccc(O)cc2CO3)cc1C`, the melting point fell in the range of 218 to 221 °C.

`CCOC(=O)C1=C(C)NC(C)=C(C(=O)OCC)C1c1ccc(Cl)cc1Cl` came in with a melting point of 148 to 149 °C.

As for `Oc1ccc2nc(-c3ccc(O)c(F)c3)cc(-c3ccc(F)cc3)c2c1`, the melting point lay in the range of 240 to 243 °C.

For `NC(=O)c1c(N2CCN(Cc3ccccc3)CC2)nn2c(-c3ccncc3)ccnc12`, the melting point was 205 to 206 °C.

In turn, `Cc1cc(-c2cc(C(F)F)n3ncc(I)c3n2)ccc1Cl` had a melting point of 144 °C.

Compound `Nc1nn(Cc2ccccc2)c2nc3n(c(=O)c12)CCS3` returned a melting point of 233 to 236 °C.

Compound `CCC(O)(CC)CC/C=C(\C)c1ccc(COc2ccc(CO)c(CO)c2)s1` had a melting point of 100 to 102 °C.

With `CC(C)Oc1cccc(CC(=O)OCc2c(-c3ccccc3)c3cc(Cl)ccc3c(=O)n2C)c1`, the melting point lay within 130 to 132 °C.

On to `O=C(O)c1ccc([N+](=O)[O-])cc1NC(=O)C(F)(F)F`, for which the melting point is 198 °C.

In the case of `COC1CCC(CCNC(=O)n2cc(F)c(=O)[nH]c2=O)CC1OC` (centres undefined), the melting point came out at 129 °C.

For `CCCCCCCCCCN1C(=O)OC2(CCNCC2)C1(C)O` (centres undefined), the melting point lay within 139 to 140 °C.

On to `O=[N+]([O-])c1ccc(C=Nc2c3c(nc4ccccc24)CCCC3)cc1`, for which the melting point was 237 to 238 °C.

Compound `CCCCCCNC(=O)[C@H](C)C[C@H](O)[C@H](CC1CCCCC1)NC(=O)[C@H](Cc1cscn1)NC(=O)OC(C)(C)C` yielded a melting point of 156 to 158 °C.

Consider `CCCCCc1ccc(-c2ncc(C#N)cn2)cc1`, for which the melting point was in the range of 96 to 96.2 °C.

Take `O=C(NC1CC1)c1ccccc1SSc1ccccc1C(=O)NC1CC1`: the melting point lay in the range of 257 to 259 °C.

In turn, `C[C@@H](F)c1nc(N)nc(N[C@@H]2CCOc3ccccc32)n1` gave a melting point of 110 to 112 °C.

With `CN1CC(CN2CCC(C(O)(c3ccc(F)cc3)c3ccc(F)cc3)CC2)OC1=O` (centres undefined), the melting point lay within 147 to 148 °C.

Compound `COC(=O)C1=Cc2cc(-c3ccc(OCCOC(C)C)cc3)ccc2NCC1` displayed a melting point of 86 to 88 °C.

`C[C@H]([C@](O)(Cn1cncn1)c1ccc(F)cc1F)S(=O)(=O)N1CCN(Cc2nncn2C)CC1`: the melting point is 210 to 211 °C.

`CN(C)CCNC(=O)C(=O)c1ccc(OCCOc2ccc3ccccc3c2)cc1` gave a melting point of 102 to 104 °C.

With `CCCC(=O)C1=C(O)CC(c2c(C)c(C)c(C)c3c2OCC3)CC1=O` (centres undefined), the melting point worked out at 140 °C.

As to `CCC(=O)OCC(=O)C1(OC(=O)c2ccccc2)CCC2C3CC(C)C4=CC(=O)C=CC4(C)C3C(O)CC21C` (centres undefined), the melting point stood at 241 °C.

With `CCOC(=O)COc1ccc(OCc2ccccc2)cc1OCc1ccccc1`, the melting point lay within 62 to 64 °C.

On to `Cc1cccc(C(N)c2ccc(OCCOc3ccc(C(N)c4cccc(C)c4)cc3)cc2)c1` (centres undefined), for which the melting point lay within 113 to 115 °C.

In turn, `CC(=O)O[C@H]1C[C@@H]2CN(C(=O)c3ccc(NC(=O)c4ccccc4-c4ccccc4)cc3)c3ccccc3CN2C1` showed a melting point of 116 to 118 °C.

In the case of `O=COCc1cc2c3ccccc3[nH]c(=O)n2n1`, the melting point was 190 to 192 °C.

Turning to `CCc1cc(C(N)=O)nn1C`, the melting point is 170 to 172 °C.

For `COc1ccc(C(O)CCc2ccccc2O)cc1` (centres undefined), the melting point lay in the range of 114 to 116 °C.

`NC1CN(c2c(F)c(F)c3c(=O)c(C(=O)O)cn(C4CC4)c3c2F)CC1CF` (centres undefined): the melting point was 252 to 253 °C.

As for `CCOc1cc(-n2c(=O)cc(C(F)(F)F)[nH]c2=O)c(F)cc1Br`, the melting point was in the range of 161 to 162 °C.

Regarding `CN(C)C(=O)c1ncn2c(=O)n(CCCl)nnc12`, the melting point fell in the range of 114 to 116 °C.
